# Source: patent US20210353579A1, “HIGH PENETRATION COMPOSITIONS AND USES THEREOF” (Techfields Pharma Co., Ltd., priority 2006, published 2021)
# How the values were obtained:
# human skin tissue = settings: pH 7.4
# mice = experiment: Analgesic activity, acetic acid writhing; assay type: in vivo
# Procedure: The prodrug compounds are administered either transdermally or orally. The parent compounds are administered orally. The number of writhing that occurred when mice are administered the acetic acid solution are counted, and the rate of inhibition based on the control group which was not pretreated with any test compounds is calculated. […] The A group is the control group.
# [1] = Plasma levels after transdermal administration to hairless mice; assay type: in vivo; settings: mouse, in vivo
# Procedure: Tested compounds (20% solution or suspension in 1 mL isopropanol) are administered transdermally to the skin of intact hairless mice. The plasma levels of the parent compounds are determined by HPLC.
# rats = experiment: Antipyretic activity, E. coli suspension as pyrogen; assay type: in vivo; settings: in °C (unit assumed)
# Procedure: Rats are administered with sterilized E. coli suspension as a pyrogen. Each group of rats are administered with a prodrug compounds or parent compounds at a dosage specified below. The prodrug compounds are administered either orally or transdermally. The parent compounds are administered orally.
# rat = settings: rats
# Procedure: The acute toxicity of the prodrug compounds and parent compounds are measured by LD50 of rat.
# [2] = 100 mg/kg transdermally, 30 min before acetic acid
# [3] = 50 mg/kg transdermally, 30 min before acetic acid
# [4] = 50 mg/kg orally, 30 min before acetic acid
# [5] = 100 mg/kg orally, 30 min before acetic acid
# [6] = 100 mg/kg transdermally, 60 minutes before acetic acid
# 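Throughout, for LD50 of HPP: acute toxicity in rats expressed as LD50, determined for both prodrugs and their parent compounds.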
structure (smiles),measurement,setting,value
CC(=O)O.CCN(CC)CCOC(=O)C(C)c1ccc2oc(-c3ccc(Cl)cc3)nc2c1 (stereo not drawn) [diethylaminoethyl 2-(4-chlorophenyl)-α-methyl-5-benzoxazoleacetate.AcOH],"In vitro penetration rate (apparent flux), prodrug compounds",human skin tissue,4000 μg/cm^2/h
same,% (rate of writhing inhibition),mice; [2],51%
same,No. of Writhing,mice; [2],17.1
same,Peak plasma concentration of parent compound after prodrug compound,[1],2000 mg/L
same,"t, time to peak plasma level of parent compound after prodrug compound",[1],50 min
same,"body temperature, t = 0 min",rats; 100 mg/kg transdermally,37.25 ± 0.07
same,"body temperature, t = 90 min",rats; 100 mg/kg transdermally,36.82 ± 0.06
same,"body temperature, t = 180 min",rats; 100 mg/kg transdermally,36.70 ± 0.05
same,"body temperature, t = 270 min",rats; 100 mg/kg transdermally,36.50 ± 0.08
same,LD50 of HPP,rat,1300 mg/kg
CC(=O)O.CCN(CC)CCOC(=O)C(C)c1cccc(Oc2ccccc2)c1 (stereo not shown) [diethylaminoethyl 2-(3-phenoxyphenyl) propionate.AcOH],"In vitro penetration rate (apparent flux), prodrug compounds",human skin tissue,1250 μg/cm^2/h
same,% (rate of writhing inhibition),mice; [3],60%
same,No. of Writhing,mice; [3],14.0
same,Peak plasma concentration of parent compound after prodrug compound,[1],20 mg/L
same,"t, time to peak plasma level of parent compound after prodrug compound",[1],40 min
same,"body temperature, t = 0 min",rats; 50 mg/kg transdermally,37.28 ± 0.06
same,"body temperature, t = 90 min",rats; 50 mg/kg transdermally,36.65 ± 0.06
same,"body temperature, t = 180 min",rats; 50 mg/kg transdermally,36.58 ± 0.08
same,"body temperature, t = 270 min",rats; 50 mg/kg transdermally,36.56 ± 0.07
same,LD50 of HPP,rat,1500 mg/kg
CC(=O)O.CCN(CC)CCOC(=O)C(C)c1ccc(CC(C)C)cc1 (stereo not shown) [diethylaminoethyl 2-(ρ-isobutylphenyl) propionate.AcOH],"In vitro penetration rate (apparent flux), prodrug compounds",human skin tissue,1250 μg/cm^2/h
same,% (rate of writhing inhibition),mice; [4],59%
same,No. of Writhing,mice; [4],14.1
same,% (rate of writhing inhibition),mice; [3],61%
same,No. of Writhing,mice; [3],13.3
same,% (rate of writhing inhibition),mice; [5],70%
same,No. of Writhing,mice; [5],10.2
same,% (rate of writhing inhibition),mice; [2],71%
same,No. of Writhing,mice; [2],9.8
same,Peak plasma concentration of parent compound after prodrug compound,[1],120 mg/L
same,"t, time to peak plasma level of parent compound after prodrug compound",[1],30 min
same,"body temperature, t = 0 min",rats; 100 mg/kg orally,37.22 ± 0.07
same,"body temperature, t = 90 min",rats; 100 mg/kg orally,36.40 ± 0.06
same,"body temperature, t = 180 min",rats; 100 mg/kg orally,36.50 ± 0.05
same,"body temperature, t = 270 min",rats; 100 mg/kg orally,36.45 ± 0.08
same,"body temperature, t = 0 min",rats; 100 mg/kg transdermally,37.27 ± 0.06
same,"body temperature, t = 90 min",rats; 100 mg/kg transdermally,36.30 ± 0.06
same,"body temperature, t = 180 min",rats; 100 mg/kg transdermally,36.35 ± 0.08
same,"body temperature, t = 270 min",rats; 100 mg/kg transdermally,36.31 ± 0.07
same,"body temperature, t = 0 min",rats; 150 mg/kg orally,37.24 ± 0.08
same,"body temperature, t = 90 min",rats; 150 mg/kg orally,36.30 ± 0.05
same,"body temperature, t = 180 min",rats; 150 mg/kg orally,36.35 ± 0.07
same,"body temperature, t = 270 min",rats; 150 mg/kg orally,36.38 ± 0.08
same,"body temperature, t = 0 min",rats; 150 mg/kg transdermally,37.26 ± 0.05
same,"body temperature, t = 90 min",rats; 150 mg/kg transdermally,36.25 ± 0.05
same,"body temperature, t = 180 min",rats; 150 mg/kg transdermally,36.30 ± 0.07
same,"body temperature, t = 270 min",rats; 150 mg/kg transdermally,36.20 ± 0.05
same,LD50 of HPP,rat,1800 mg/kg
CC(=O)O.CCN(CC)CCOC(=O)c1cccnc1Nc1cccc(C(F)(F)F)c1C [diethylaminoethyl 2-[[2-methyl-3-(trifluoromethyl)phenyl]amino]-3-pyridinecarboxylate.AcOH],"In vitro penetration rate (apparent flux), prodrug compounds",human skin tissue,1700 μg/cm^2/h
same,% (rate of writhing inhibition),mice; [6],55%
same,No. of Writhing,mice; [6],15.7
same,Peak plasma concentration of parent compound after prodrug compound,[1],20 mg/L
same,"t, time to peak plasma level of parent compound after prodrug compound",[1],50 min
same,"body temperature, t = 0 min",rats; 100 mg/kg transdermally,37.23 ± 0.06
same,"body temperature, t = 90 min",rats; 100 mg/kg transdermally,36.69 ± 0.06
same,"body temperature, t = 180 min",rats; 100 mg/kg transdermally,36.52 ± 0.08
same,"body temperature, t = 270 min",rats; 100 mg/kg transdermally,36.40 ± 0.07
same,LD50 of HPP,rat,1100 mg/kg
